Measured values reported in PMC9882606, “Rationally designed inhibitors of the Musashi protein-RNA interaction by hotspot mimicry” (Research Square, 2023).

Tests used:
[1] = target: T1, MSI1 RRM1 (Homo sapiens, UniProt O43347); assay: Fluorescence polarization (FP) competition assay with fluorescein-labeled RNA; assay type: binding; conditions: for inhibition in FP competition assay: MSI1 RRM1, result in words
T1 sequence (O43347 20-110 limits assumed): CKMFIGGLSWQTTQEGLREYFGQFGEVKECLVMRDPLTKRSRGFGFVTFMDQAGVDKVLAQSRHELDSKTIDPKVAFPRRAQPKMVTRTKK
Excerpt: Figure 1: The hotspot mimicry approach. […] (A) The structure of the MSI1 / RNA complex. The RNA (sticks) wraps around the protein (spheres). Two adjacent bases, A106 and G107 (magenta), are buried in a shallow pocket on the protein surface. (B) An interaction map is generated from the RNA in the complex, by collecting deeply buried bases (magenta) and atoms involved in intermolecular hydrogen bonds (acceptors shown in yellow, donors in green). […] Positive values indicate diminished binding when a given base is replaced with an abasic site, showing that A106 and G107 contribute more than the other nearby bases to the binding affinity of this interaction. (E) The hotspot pharmacophore serves as a template for ligand-based screening, searching for compounds that would mimic the three-dimensional features of the pharmacophore. The screen led to the identification of compound R12, which mimics the geometry of the rings and provides three of the four desired hydrogen bonding groups. (F) R12 competes with fluorescein-labeled RNA for MSI1 binding, as observed through a fluorescence polarization assay. […] (G) Superposition of the hotspot pharmacophore back onto the protein structure illustrates the interactions that should be captured by an ideal ligand: stacking against three aromatic sidechains, and four intermolecular hydrogen bonds.
We applied our “hotspot mimicry” approach to the structure of Musashi-1 RRM1 bound to cognate RNA [54], and found a single hotspot pharmacophore derived from an adjacent pair of buried bases, Adenine106 and Guanine107 (Figure 1a). […] This pharmacophore captures both the aromatic stacking and the hydrogen bonding of the RNA hotspot through its inclusion of ring moieties and donor/acceptor positions, respectively (Figure 1c). To test whether these two particular bases indeed serve as a hotspot of the MSI1 RRM1 / RNA interaction, we used a fluorescence polarization (FP) competition assay (see Supporting Methods) to measure the binding affinity of RNA variants that maintained the backbone but lacked individual bases. […] In contrast, introduction of an abasic site at other nearby positions affected binding much less. Confirmation that A106 and G107 serve as hotspot bases of this interaction thus provided experimental evidence supporting the pharmacophore selection from our computational approach.

[2] = target: T1, MSI1 RRM1; assay: Differential Scanning Fluorimetry (DSF); assay type: binding; conditions: increasing compound dose
Excerpt: (§1) Out of concern that R12–7’s activity may be associated with compound aggregation, we elected to continue with optimization of R12–8 (Figure 2b).
To further characterize R12–8–44–3, we applied differential scanning fluorimetry (DSF) as an orthogonal secondary assay. […] While this could be a sign of apparent inhibition occurring through aggregation, there are also legitimate inhibitors that reduce their target protein’s melting temperature. An alternate explanation could simply be that MSI1’s folding landscape is not simply two-state, and that a partially-folded intermediate stabilized by R12–8–44–3 affects the unfolding transition.

[3] = tested on: MSI2; assay: Immunoblot of cellular MSI2 protein levels in PC9 cells; assay type: cell-based, human; conditions: PC9, 20 μM compound for 1, 3, 6, 24, or 48 hours
Excerpt: To explore the effect of these MSI2 inhibitors in a cancer-relevant cellular context, we selected two MSI2-dependent cancer cell lines: non-small cell lung cancer cell line PC9 and leukemia cell line K562 [73, 98–101]. Upon treatment of PC9 cells with Ro, R12–8–44–3, or negative control R12-neg, we found at multiple time points that cellular MSI2 protein levels were unchanged (Figure 6a). To confirm target engagement, we therefore adapted the cellular thermal shift assay (CETSA). To determine experimental conditions, we first harvested cells and incubated at increasing temperatures; we then removed aggregated protein by centrifugation and used Western blotting to probe the amount of MSI2 remaining in the soluble fraction (Figure 6b, Figure S9). Having established 49 °C as the midpoint of the transition under these (non-equilibrium) conditions, we then treated cells with our candidate MSI2 inhibitor for 3 h, and heated to 49 °C.
Figure 6: Direct cellular engagement of MSI2 interaction by R12–44–3. (A) Immunoblot from PC9 cells treated with Ro (positive control), R12-neg (negative control), or R12–8–44–3. Cells were treated with 20 μM compound for 1, 3, 6, 24, or 48 hours. MSI2 protein abundance was then quantified and normalized to untreated sample. One representative image is shown; quantification is presented as the average ± S.E.M. from 3 independent replicates. (B) Thermal-induced aggregation of cellular MSI2 in the PC9 cell line. Cells were briefly incubated at temperatures between 40 °C to 67 °C, then centrifuged and the amount of MSI2 remaining in the soluble fraction was quantified by Western blotting. […] One representative image is shown; quantification is presented as the average ± S.E.M. from 3 independent replicates, normalized first to beta-actin and then to DMSO control. […] One representative image is shown; quantification is presented as the average ± S.E.M. from 3 independent replicates, normalized first to beta-actin and then to DMSO control. […]

[4] = target: MSI2 (Homo sapiens, UniProt Q96DH6); assay: MS2-TRAP aptamer pull-down reporter assay in HEK293 cells; assay type: cell-based; design: HEK293 cells (with a high baseline MSI2 expression); endogenous in cells; host or cells: HEK293; conditions: HEK293, 24 h treatment; for total amount of MSI2 in cells: input prior to IP; for amount of Luc mRNA in cells (qPCR): prior to IP
MSI2 (Homo sapiens, UniProt Q96DH6), sequence (Q96DH6 whole entry): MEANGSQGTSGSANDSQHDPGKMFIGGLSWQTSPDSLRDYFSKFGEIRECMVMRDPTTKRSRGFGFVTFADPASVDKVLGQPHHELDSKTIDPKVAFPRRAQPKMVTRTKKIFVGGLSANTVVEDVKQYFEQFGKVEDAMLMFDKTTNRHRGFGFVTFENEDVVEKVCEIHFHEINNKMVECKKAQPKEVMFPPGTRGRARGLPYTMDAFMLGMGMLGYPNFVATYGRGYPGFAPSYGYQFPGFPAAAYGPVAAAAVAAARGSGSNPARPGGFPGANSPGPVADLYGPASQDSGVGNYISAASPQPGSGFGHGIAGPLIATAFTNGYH
Excerpt: Figure 5: Characterization of R12–8–44–3 in a reporter cell line. […] As a positive control, Ro 08–2750 (aka “Ro”) is also included in these studies. (B) Schematic of reporter assay. HEK293 cells are transfected with a plasmid encoding an arbitrary gene (Luc) with UAG repeats (to recruit MSI2) and MS2 repeats (for pulldown) appended to its 3’ UTR. The same vector also includes FLAG-labeled MS2-BP. Upon anti-FLAG immunoprecipitation (IP), the FLAG-labeled MS2-BP allows purification of the Luc mRNA along with any associated factors. (C) Prior to IP, cells express Luc mRNA to a similar extent irrespective of whether they were treated with DMSO, R12-neg, R12–8–44–3, or Ro. (D) Prior to IP (“input”), MSI2 is detected in all samples to a similar extent (as is KU-86 loading control). After pulldown of Luc mRNA, MSI2 is found associated with the mRNA in cells treated with DMSO or R12-neg, but not in cells that had been treated with R12–8–44–3 or Ro. Representative image is shown; quantification is plotted as the average of 2 independent experiments ± S.E.M. Statistical analysis was performed using unpaired two tailed t-test, with * indicating p<0.05. Uncropped Western blots from this experiment are provided as Figure S8.
To determine whether inhibition of MSI1/MSI2 by R12–8–44–3 would apply in a cellular context, we adapted an aptamer pull-down reporter assay that we previously used to validate candidate Musashi target genes. Briefly, our approach is a variation of the MS2-TRAP (MS2-tagged RNA affinity purification) method, which uses bacteriophage protein MS2-BP to extract from cells any factors that associate with RNAs containing a specific stem-loop structure (MS2) from the phage genome. Here, we designed an mRNA construct that would include a series of MS2 hairpins and also a MSI2 recognition sequence. We transfected this construct into cells that also express FLAG-tagged MS2-BP (a protein unrelated to MSI2). By affinity purification using the FLAG tag, proteins bound to the designed mRNA can be extracted from cells.
To test for inhibition of MSI2 in cells, we transfected HEK293 cells (with a high baseline MSI2 expression), with the pMS2-LUC-3’UTR from our previous studies. This vector appends onto the 3’UTR of an arbitrary gene (in this case luciferase) two key elements: UAG-motifs comprising a MSI2 recognition sequence, and a series of five MS2 hairpins. The same vector also encodes the FLAG-MS2-BP fusion needed for affinity purification (Figure 5b). Cells were then treated with each compound of interest for 24 h, and then the cells were subsequently harvested and used for anti-FLAG immunoprecipitation. […] Using qPCR we evaluated the amount of Luc mRNA in cells treated with R12–8–44–3, R12-neg, or Ro, and found this to be unchanged (Figure 5c).

[5] = tested on: PC9 cells; assay: CellTiter-Blue cell viability, PC9; assay type: cell-based, human; conditions: PC9, 3 days, dose-response
Method: (§2) Figure 7: Cellular characterization of MSI2 inhibition by R12–8–44–3. (A) Quantification of mRNA immunoprecipitation (RIP) results. Cells were treated with 10 μM of the indicated compounds for 8 hours. After immunoprecipitation with anti-MSI2, mRNA targets were quantified. The amount of each target mRNA in the pulldown was calculated relative to the input, and results from all targets were normalized to PTP4A1. Treating cells with R12–8–44–3 disrupted the interaction with all four cognate mRNAs (PTP4A, SMAD3, EGFR, and MSI2). Data are presented as the average ± S.E.M. from at least 3 independent replicates. […] Cells were treated with indicated compounds at two concentrations (5 μM and 20 μM) for 48 hours, then protein levels of relevant MSI2 targets were determined (EGFR, SMAD3, and MSI2). One representative image is shown; quantification is presented as the average ± S.E.M. from at least 3 independent replicates, normalized first to beta-actin and then to DMSO-treated cells. (C) Cell viability dose-response quantified by CellTiter-Blue after 3 days (left) and cell proliferation with 10μM of compounds quantified by clonogenic assay after 7 days (right). […] (D) Cell viability quantified by clonogenic assay of PC9 cell line after 7-day treatment with 2 nM osimertinib (osi alone), osimertinib with 10 μM R12–8–44–3, or osimertinib with 10 μM R12-neg. […]

[6] = tested on: PC9 cells; assay: Clonogenic assay, PC9; assay type: cell-based, human; conditions: PC9, 10 μM, 7 days
Method: as §2

[7] = tested on: MSI1/MSI2; design: method as in PMID 31217428, PMID 36167829; conditions: in vitro; cited from earlier work
[8] = tested on: leukemia/lymphoma models; design: method as in PMID 31217428, PMID 36167829; conditions: in vivo leukemia/lymphoma models; cited from earlier work
[9] = Solubility as noted during FP testing; assay type: physicochemical; conditions: result in words
Excerpt: We then used this pharmacophore as a template for virtual screening. The 12 top-scoring hits identified from the resulting screen could each be classified into one of three diverse chemotypes (Figure S1). While none of these scaffolds bear any obvious resemblance in chemical structure to a nucleobase pair, the overlap in three-dimensional shape and hydrogen bonding potential between the hotspot pharmacophore and the modeled conformation of each compound is immediately evident. Despite this strong similarity, none of the 12 hit compounds recapitulated all four of the polar groups included in the hotspot pharmacophore, and only three hit compounds matched to three of the polar groups: R12 (Figure 1e), its close analog R4, and R7 (Figure S2).
as §1

Row | SMILES | change of the protein's melting temperature [2] | inhibition in FP competition assay [1] | cellular MSI2 protein levels [3] | MSI2 purified with reporter mRNA (anti-FLAG pulldown) [4] | total amount of MSI2 in cells [4] | amount of Luc mRNA in cells (qPCR) [4] | solubility [9] | other results
1 | COc1ccc(C(=O)OCc2nc(N)c3c(C)c(C)sc3n2)c(N)c1 [R12–8–44] | monotonically-increasing melting temperature with increasing ligand concentration | – | – | – | – | – | – | improvement in potency over parent compound ([1]; FP assay, MSI1 RRM1): more than ten-fold improvement in potency
2 | Cc1sc2nc(COC(=O)c3cccc(Cl)c3Cl)nc(N)c2c1C [R12-neg] | – | inactive | unchanged | does not disrupt MSI2 pulldown | unaffected | unchanged | – | –
3 | Cc1cc2nc3c(=O)[nH]c(=O)nc-3n(C)c2cc1C=O [Ro 08–2750, reference compound] | – | – | unchanged | much less MSI2 is purified | unaffected | unchanged | – | cell viability (CellTiter-Blue) [5]: dramatically diminishes cell viability; cell proliferation (clonogenic assay) [6]: dramatically diminishes cell viability; inhibition of RNA-binding activity of MSI1/MSI2 [7]: inhibit the RNA-binding activity of MSI1/MSI2 in vitro; disease burden [8]: reduce disease burden
4 | Nc1nc(COC(=O)c2cncc(Br)c2)nc2ccccc12 [R12] | – | showed inhibition | – | – | – | – | low solubility | –
5 | COc1ccc(C(=O)OCc2nc(N)c3ccccc3n2)c(N)c1 [R12–8] | monotonically increasing stabilization with increasing dose | superior inhibition and solubility than R12 | – | – | – | – | superior inhibition and solubility than R12 | –
